Assays:
[1] = system: SDMA signal (PRMT5 inhibition) in HCT116 MTAP-deleted cells; assay: Symmetric di-methyl arginine image-based high content screen assay (SDMA assay), HCT116 MTAP-deleted; format: cell-based; details: SDMA assay; for EC50: Homo sapiens, HCT-116, 72 h, 3 days of treatment, cell line not given, taken as HCT116 MTAP-deleted, read-out: EC50 (SDMA assay); for EC50 selectivity (SDMA assay): taken as HCT116 WT versus MTAP-deleted
Procedure, shortened: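 Read-out: per-cell mean SDMA immunofluorescence (Alexa Fluor 488 secondary), cells segmented by DAPI on a high-content imager. Compound exposure in HCT116 MTAP-deleted cells lasted until fixation on Day 3; overnight 4° C primary anti-SDMA antibody staining.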

[2] = system: HCT116 MTAP-deleted cells; assay: Cell viability assay (CellTiter-Glo, 7 days), HCT116 MTAP-deleted; details: Homo sapiens, HCT-116, 168 h
Method: Control compounds were analyzed in parallel each time for quality control.
In Brief, on Day −1, a serial dilution of stock compounds in DMSO was performed using BioMek liquid handlers and dispensed using Echo acoustic dispenser into 384 well plates. Both tool compounds and sample compounds were spotted in the same plate for a dose response of PRMT5 inhibitors. Compound plates were stored as frozen until the cells were ready for seeding.
On Day 0, 100 HCT WT or HCT116 MTAP-deleted cells were seeded in compound-containing 384 well plates (50 μl per well) in RPMI 1640 media supplemented with 10% heat inactivated fetal bovine serum, Glutamax and penicillin streptomycin using EL460 liquid dispenser 5 μl cassette (BioTek, part no. 7170011). After equilibrating the plate in room temperature, the cells were incubated for 7 days inside the sealed incubator set at 37 °C with 90% humidity and 5% CO2.
On Day 7, the viability of cells was measured using a CTG assay kit (CellTitre-Glo; Promega cat no. G7573). Shortly, 40 μl per well of luminescent cell viability assay reagent were dispensed using EL460 liquid dispenser 5 μl cassette. CTG luminescence signal was measured using an EnVision plate reader (PerkinElmer) in accordance with manufacturer's instruction. The CC50 values for each compound after 7 days of treatment were calculated using 4 parameter non-linear logistical curve fit.

Structure (SMILES)	EC50 [1] [nM]	EC50 selectivity (SDMA assay) [1]	CC50 [2] [nM]
CC(=O)N(C1COC1)N(Cc1ccc(C(F)(F)F)cc1F)C(=O)c1ccc2nc(N)c3cnn(C)c3c2c1 [Example 340, N′-acetyl-4-amino-N-(2-fluoro-4-(trifluoromethyl)benzyl)-1-methyl-N′-(oxetan-3-yl)-1H-pyrazolo[4,3-c]quinoline-8-carbohydrazide]	< 1	50	< 100
CC(=O)N(CC1CC1)N(Cc1ccc(C(F)(F)F)cn1)C(=O)c1ccc2nc(N)c3cnn(C)c3c2c1 [Example 341, N′-acetyl-4-amino-N′-(cyclopropylmethyl)-1-methyl-N-((5-(trifluoromethyl)pyridin-2-yl)methyl)-1H-pyrazolo[4,3-c]quinoline-8-carbohydrazide]	1 to 5	188	< 100
CN(C(=O)C(F)(F)C1CC1)N(Cc1ccc(C(F)(F)F)cn1)C(=O)c1ccc2nc(N)c3cnn(C)c3c2c1 [Example 342, 4-amino-N′-(2-cyclopropyl-2,2-difluoroacetyl)-N′,1-dimethyl-N-((5-(trifluoromethyl)pyridin-2-yl)methyl)-1H-pyrazolo[4,3-c]quinoline-8-carbohydrazide]	1 to 5	30	< 100
CN(C(=O)C1CC1)N(Cc1ccc(C(F)(F)F)cc1)C(=O)c1ccc2nc(N)c3cnn(C)c3c2c1 [Example 343, 4-amino-N′-(cyclopropanecarbonyl)-N′,1-dimethyl-N-(4-(trifluoromethyl)benzyl)-1H-pyrazolo[4,3-c]quinoline-8-carbohydrazide]	< 1	96	< 100
CN(C(=O)C1CC1)N(Cc1ccc(C(F)(F)F)cc1F)C(=O)c1ccc2nc(N)c3cnn(C)c3c2c1 [Example 344, 4-amino-N′-(cyclopropanecarbonyl)-N-(2-fluoro-4-(trifluoromethyl)benzyl)-N′,1-dimethyl-1H-pyrazolo[4,3-c]quinoline-8-carbohydrazide]	< 1	48	< 100
Cn1ncc2c(N)nc3ccc(C(=O)N(Cc4ccc(C(F)(F)F)cn4)N4CC5(CC(F)(F)C5)OC4=O)cc3c21 [Example 345, 4-amino-N-(2,2-difluoro-6-oxo-5-oxa-7-azaspiro[3.4]octan-7-yl)-1-methyl-N-((5-(trifluoromethyl)pyridin-2-yl)methyl)-1H-pyrazolo[4,3-c]quinoline-8-carboxamide]	1 to 5	152	100 to 1000
Cn1ncc2c(N)nc3ccc(C(=O)N(NC(=O)C4CC4)C4COc5cc(C(F)(F)F)ccc54)cc3c21 (stereo not drawn) [Example 349, 4-amino-N′-(cyclopropanecarbonyl)-1-methyl-N-(6-(trifluoromethyl)-2,3-dihydrobenzofuran-3-yl)-1H-pyrazolo[4,3-c]quinoline-8-carbohydrazide]	< 1	13	< 100
CCOC(=O)NN(C(=O)c1ccc2nc(N)c3cnn(C)c3c2c1)C1COc2cc(C(F)(F)F)ccc21 (stereo not drawn) [Example 350, ethyl 2-(4-amino-1-methyl-1H-pyrazolo[4,3-c]quinoline-8-carbonyl)-2-(6-(trifluoromethyl)-2,3-dihydrobenzofuran-3-yl)hydrazine-1-carboxylate]	< 1	42	< 100
CC(=O)N(C)N(Cc1ccc(C(F)(F)F)c(F)c1)C(=O)c1ccc2nc(N)c3cnn(C)c3c2c1 [Example 351, N′-acetyl-4-amino-N-(3-fluoro-4-(trifluoromethyl)benzyl)-N′,1-dimethyl-1H-pyrazolo[4,3-c]quinoline-8-carbohydrazide]	1 to 5	33	< 100
Cn1ncc2c(N)nc3ccc(C(=O)N(Cc4ccc(C(F)(F)F)cn4)N4CC(F)(F)C4)cc3c21 [Example 359, 4-amino-N-(3,3-difluoroazetidin-1-yl)-1-methyl-N-((5-(trifluoromethyl)pyridin-2-yl)methyl)-1H-pyrazolo[4,3-c]quinoline-8-carboxamide]	< 1	320	< 100
CN(C(=O)C1CC1)N(Cc1ncc(Cl)cc1F)C(=O)c1ccc2nc(N)c3cnn(C)c3c2c1 [Example 360, 4-amino-N-((5-chloro-3-fluoropyridin-2-yl)methyl)-N′-(cyclopropanecarbonyl)-N′,1-dimethyl-1H-pyrazolo[4,3-c]quinoline-8-carbohydrazide]	1 to 5	446	< 100
CN(c1ccsn1)N(Cc1ccc(C(F)(F)F)cn1)C(=O)c1ccc2nc(N)c3cnn(C)c3c2c1 [Example 361]	< 1	34	< 100
Cn1ncc2c(N)nc3ccc(C(=O)N(Cc4ccc(C(F)(F)F)cn4)N4C(=O)O[C@H]5CC[C@H]54)cc3c21 [Example 362, 4-amino-1-methyl-N-((1S,5R)-3-oxo-2-oxa-4-azabicyclo[3.2.0]heptan-4-yl)-N-((5-(trifluoromethyl)pyridin-2-yl)methyl)-1H-pyrazolo[4,3-c]quinoline-8-carboxamide]	1 to 5	468	< 100
Cn1ncc2c(N)nc3ccc(C(=O)N(Cc4ccc(F)cc4F)N4CCOCC4)cc3c21 [Example 365, 4-amino-N-(2,4-difluorobenzyl)-1-methyl-N-morpholino-1H-pyrazolo[4,3-c]quinoline-8-carboxamide]	1 to 5	233	100 to 1000
CN(C(=O)C1CC1)N(Cc1ccc(-c2cnn(C(F)(F)F)c2)cc1)C(=O)c1ccc2nc(N)c3cnn(C)c3c2c1 [Example 374, 4-amino-N′-(cyclopropanecarbonyl)-N′,1-dimethyl-N-[[4-[1-(trifluoromethyl)pyrazol-4-yl]phenyl]methyl]pyrazolo[4,3-c]quinoline-8-carbohydrazide]	1 to 5	125	< 100
CC(=O)N(C)N(Cc1ccc(-c2cnn(C(F)(F)F)c2)cc1)C(=O)c1ccc2nc(N)c3cnn(C)c3c2c1 [Example 375, N′-acetyl-4-amino-N′,1-dimethyl-N-[[4-[1-(trifluoromethyl)pyrazol-4-yl]phenyl]methyl]pyrazolo[4,3-c]quinoline-8-carbohydrazide]	1 to 5	141	< 100
CN(C(=O)C1CC1)N(Cc1ccc(-c2cnn(C(F)(F)F)c2)cc1Cl)C(=O)c1ccc2nc(N)c3cnn(C)c3c2c1 [Example 376, 4-amino-N-[[2-chloro-4-[1-(trifluoromethyl)pyrazol-4-yl]phenyl]methyl]-N′-(cyclopropanecarbonyl)-N′,1-dimethyl-pyrazolo[4,3-c]quinoline-8-carbohydrazide]	1 to 5	164	< 100
CN1CCN(N(Cc2ccc(C(F)(F)F)cn2)C(=O)c2ccc3nc(N)c4cnn(C)c4c3c2)C(=O)C1 [Example 382, 4-amino-1-methyl-N-(4-methyl-2-oxo-piperazin-1-yl)-N-[[5-(trifluoromethyl)-2-pyridyl]methyl]pyrazolo[4,3-c]quinoline-8-carboxamide]	1 to 5	167	< 100
CN1CCN(N(Cc2ccc(C(F)(F)F)cn2)C(=O)c2cc3c(cc2F)nc(N)c2cnn(C)c23)C(=O)C1 [Example 383, 4-amino-7-fluoro-1-methyl-N-(4-methyl-2-oxo-piperazin-1-yl)-N-[[5-(trifluoromethyl)-2-pyridyl]methyl]pyrazolo[4,3-c]quinoline-8-carboxamide]	1 to 5	168	< 100
CC(=O)N1CCN(N(Cc2ccc(C(F)(F)F)cn2)C(=O)c2ccc3nc(N)c4cnn(C)c4c3c2)CC1 [Example 384, N-(4-acetylpiperazin-1-yl)-4-amino-1-methyl-N-[[5-(trifluoromethyl)-2-pyridyl]methyl]pyrazolo[4,3-c]quinoline-8-carboxamide]	1 to 5	283	100 to 1000
COCC(=O)N(C)N(Cc1ccc(C(F)(F)F)cn1)C(=O)c1ccc2nc(N)c3cnn(C)c3c2c1 [Example 385, 4-amino-N′-(2-methoxyacetyl)-N′,1-dimethyl-N-[[5-(trifluoromethyl)-2-pyridyl]methyl]pyrazolo[4,3-c]quinoline-8-carbohydrazide]	1 to 5	52	< 100
COCC(=O)N(C)N(Cc1ccc(C(F)(F)F)cn1)C(=O)c1cc2c(cc1F)nc(N)c1cnn(C)c12 [Example 386, 4-amino-7-fluoro-N′-(2-methoxyacetyl)-N′,1-dimethyl-N-[[5-(trifluoromethyl)-2-pyridyl]methyl]pyrazolo[4,3-c]quinoline-8-carbohydrazide]	1 to 5	20	< 100
CC(=O)N(C)N(Cc1ccc(C#CC2CCCO2)cc1F)C(=O)c1ccc2nc(N)c3cnn(C)c3c2c1 (stereo not drawn) [Example 387, N′-acetyl-4-amino-N-[[2-fluoro-4-(2-tetrahydrofuran-2-ylethynyl)phenyl]methyl]-N′,1-dimethyl-pyrazolo[4,3-c]quinoline-8-carbohydrazide]	1 to 5	44	< 100
CC(=O)N(C)N(Cc1ccc(C#CC2CCOC2)cc1F)C(=O)c1ccc2nc(N)c3cnn(C)c3c2c1 (stereo not drawn) [Example 388, N′-acetyl-4-amino-N-[[2-fluoro-4-(2-tetrahydrofuran-3-ylethynyl)phenyl]methyl]-N′,1-dimethyl-pyrazolo[4,3-c]quinoline-8-carbohydrazide]	< 1	40	< 100

Source: patent publication US20240254118A1, “PRMT5 INHIBITORS AND USES THEREOF” (Gilead Sciences, Inc., priority 2022, published 2024)
